# Data from publication PMC9464843, “Escitalopram co-prescription in anastrozole-treated breast cancer patients” (Northern Clinics of Istanbul, 2022).
# Read-outs that look alike come from different tables or passages of the source.
# How the values were obtained:
# serum estradiol = assay: Serum estradiol levels before and after escitalopram; assay type: in vivo, human (post-menopausal breast cancer patients)
# Protocol: (§1) Data on age, body mass index (BMI; kg/m^2), stage of tumor, previous anti-neoplastic treatments, and concomitant medications were collected in each patient at study enrollment. Blood samples were collected twice, before and 1-month after the onset of escitalopram treatment to analyze change in plasma anastrozole as well as estradiol levels under escitalopram treatment. Anastrozole levels were also analyzed with respect to baseline characteristics including age (≤57 years vs. >57 years), BMI (≤29.9 kg/m^2 vs. >29.9 kg/m^2), radiotherapy (left vs. right breast, the side indicates the affected organs, none), chemotherapy (applied vs. none), tamoxifen (applied vs. none), tumor stage, estradiol levels (≤10 pg/mL vs. >10 pg/mL), concomitant medications (present vs. none) and in patients discontinued versus continued 1-month escitalopram treatment.
# [1] = female, human, in vivo
# Protocol: (§2) A total of 24 operated post-menopausal breast cancer patients who were co-prescribed with escitalopram while taking anastrozole for at least 1 month were included in this study. The inclusion criteria were being on anastrozole treatment (1 mg/day) for at least 1 month (30±2 days), being younger than age of 75, having no implementation of radiotherapy or chemotherapy in the past 3 months before the study enrollment and having normal renal and hepatic functions.
# (§3) Plasma anastrozole levels were measured twice, once before and once 1 month (30±2 days) after the onset of escitalopram by high-performance liquid chromatography (HPLC). The blood samples were centrifuged at 4500 g for 5 min within the 1 hour following the sampling and stored at -80°C until analysis. The plasma samples were extracted by using diethyl ether:dichloromethane (80:20, v:v) and high-performance liquid chromatography analyses were performed in Agilent Triple Quadrupole Mass Spectrometry system. A reverse phase C18 column (poroshell SB-C18, 2.7µm, 3.0 × 100 mm) was used within the system. The mobile phase was comprised of 5 mM ammonium acetate and acetonitrile at a ratio of 15:85 (v:v). Tolterodine was used as an internal standard. The external standard calibration interval was 0.5–50 ng/mL (r^2: 0.9930). Before analysis, 5 mL venous blood samples were collected into Na-EDTA-containing glass tubes and the blood samples were centrifuged at 4500 g for 5 min within an hour following the sampling and stored at -80°C until analysis.
# (§4) The time between the last dose of anastrozole and blood sampling was recorded. As there was a variation between the last anastrozole dose and the blood sampling time, the maximum plasma concentrations (Cmax) were extrapolated by using the following pharmacokinetic formula:
# [2] = breast cancer patients, cited from earlier work
# clinical = settings: female, human, in vivo
# Protocol: as §2, §3, §4
# CYP2D6 [3] = settings: cited from earlier work; for Ability to inhibit the CYP2D6 enzyme: SSRI antidepressants
# [4] = cited from earlier work
# [5] = Liver and kidney functions after escitalopram; assay type: in vivo, human (post-menopausal breast cancer patients); settings: continuers n=17; 1 month escitalopram with anastrozole
# [6] = Completion / discontinuation of 1-month escitalopram treatment; assay type: in vivo, human (post-menopausal breast cancer patients); settings: n=24
# Protocol: as §1
# Patients were on anastrozole (1 mg/day) for at least 1 month (30±2 days), while escitalopram was initiated with a dose of 10 mg/day for the first 7 days and then the dose was gradually elevated to 20 mg/day to enable tolerance.
# CYP2C19 = test system: CYP2C19; design: method as in PMID 11454728; settings: cited from earlier work
# CYP3A4 = test system: CYP3A4; design: method as in PMID 11454728; settings: cited from earlier work
# CYP2D6 [7] = test system: CYP2D6; design: method as in PMID 11454728; settings: cited from earlier work
# CYP 1A2 = test system: CYP 1A2; design: method as in PMID 17375980; settings: cited from earlier work
# CYP 2C9 = test system: CYP 2C9; design: method as in PMID 17375980; settings: cited from earlier work
# CYP 2C19 = test system: CYP 2C19; design: method as in PMID 17375980; settings: cited from earlier work
# CYP 3A4 = test system: CYP 3A4; design: method as in PMID 17375980; settings: cited from earlier work
# adrenergic receptors = test system: adrenergic receptors; design: method as in PMID 16266205; settings: cited from earlier work
# cholinergic receptors = test system: cholinergic receptors; design: method as in PMID 16266205; settings: cited from earlier work
# histaminergic receptors = test system: histaminergic receptors; design: method as in PMID 16266205; settings: cited from earlier work
# [8] = test system: depression-related symptoms; design: method as in PMID 22142651; settings: escitalopram 5–20 mg/day; breast cancer patients; cited from earlier work
# [9] = design: method as in earlier work; settings: escitalopram 20 mg daily for 12 weeks; hot flushes; cited from earlier work
# [10] = under anastrozole 1 mg/day, n=24
smiles,measurement,setting,value
"CC(C)(C#N)c1cc(Cn2cncn2)cc(C(C)(C)C#N)c1 [Anastrozole, anastrozole]",Patients with serum estradiol levels >10 pg/mL,serum estradiol; [10],25%
same,Patients with serum estradiol levels ≤10 pg/mL,serum estradiol; [10],75%
same,Basal plasma anastrozole level,[1],52.2 ng/mL
same,"Plasma anastrozole, post-escitalopram",[1],31.9 ng/mL
same,"Plasma anastrozole, post-escitalopram",[1]; 1 month,27.9 ng/mL
same,"Anastrozole concentrations, inter-individual range",[2]; past studies,0.0 to 98.8 ng/mL
same,"Anastrozole plasma steady-state concentration, mean",[2]; previous studies,37.4 ng/mL
same,"Anastrozole plasma steady-state concentration, median",[2]; previous studies,32.2 ng/mL
same,concentration at 1 month,"clinical; Plasma anastrozole levels, range",9.1 to 57 ng/mL
same,concentration at 1 month,"clinical; Plasma anastrozole, post-escitalopram",40.4 ng/mL
CN(C)CCCC1(c2ccc(F)cc2)OCc2cc(C#N)ccc21 (stereo not drawn) [citalopram],Ability to inhibit the CYP2D6 enzyme,CYP2D6 [3],weak inhibition
CNCCC(Oc1ccc(C(F)(F)F)cc1)c1ccccc1 (stereo not drawn) [fluoxetine],Ability to inhibit the CYP2D6 enzyme,CYP2D6 [3],strong inhibition
Fc1ccc([C@@H]2CCNC[C@H]2COc2ccc3c(c2)OCO3)cc1 [paroxetine],Ability to inhibit the CYP2D6 enzyme,CYP2D6 [3],strong inhibition
NC(=O)N1c2ccccc2C=Cc2ccccc21 [Carbamazepine],"Carbamazepine clearance, non-obese versus obese patients",[4],marginally higher
same,Carbamazepine clearance after major weight loss,[4]; six obese patients,significantly increased
CN(C)CCC[C@@]1(c2ccc(F)cc2)OCc2cc(C#N)ccc21 [escitalopram],Change in estradiol levels after escitalopram administration,"serum estradiol; continuers n=17, 1 month escitalopram with anastrozole",no change
same,Change in liver and kidney functions after escitalopram administration,[5],No significant change
same,Patients who completed the 1-month escitalopram treatment,[6],70.8%
same,Patients who discontinued escitalopram within the 1st week of treatment,[6]; 10 mg/day first 7 days,29.2%
same,Share of CYP2C19 in bio-transformation of escitalopram,CYP2C19,37%
same,Share of CYP3A4 in bio-transformation of escitalopram,CYP3A4,35%
same,Share of CYP2D6 in bio-transformation of escitalopram,CYP2D6 [7],28%
same,Ability to inhibit the CYP2D6 enzyme,CYP2D6 [3],weak inhibition
same,Inhibition of CYP 2D6,CYP2D6 [3],weak or negligible inhibition
same,Inhibition of CYP 1A2,CYP 1A2,weak or negligible inhibition
same,Inhibition of CYP 2C9,CYP 2C9,weak or negligible inhibition
same,Inhibition of CYP 2C19,CYP 2C19,weak or negligible inhibition
same,Inhibition of CYP 3A4,CYP 3A4,weak or negligible inhibition
same,Affinity for adrenergic receptors,adrenergic receptors,low affinity
same,Affinity for cholinergic receptors,cholinergic receptors,low affinity
same,Affinity for histaminergic receptors,histaminergic receptors,low affinity
same,Time to amelioration of depression-related symptoms,[8],≤ 1 week
same,Patients who discontinued treatment due to side effects such as nausea and somnolence,[9],14%
